From patent US20240216312A1, “PPAR-AGONISTS FOR USE IN THE TREATMENT OF LIVER FAILURE” (Genfit, priority 2021, published 2024)
Where two headings read alike, the source gives them in different places.

Tests used:
[1] = system: THP-1 cells; experiment: PMA-induced differentiation of THP-1 monocytes into macrophages, TNFα and MCP1 secretion (HTRF); type: cell-based; details: Homo sapiens, PMA-stimulated THP1 monocytes, 24 h
Protocol: In order to test the efficacy of the compounds to inhibit the activation of the immune system, we used the human monocytic cell line THP-1 (Sigma). THP1 monocytes were cultured in RPMI 1640 with L-glutamine medium (#10-040-CV, Corning) supplemented with 10% fetal bovine serum (FBS, #10270, Gibco), 1% penicillin/streptomycin (#15140, Gibco) and 25 mM Hepes (H0887, Sigma) in a 5% C02 incubator at 37° C.
To evaluate the effect of the compounds on monocyte differentiation, 2.5×10^4 THP-1 cells were cultured for 24 h in a 384-well plate in FBS-deprived culture medium containing Cpd.1 in dose ranges, as well as 5 or 100 ng/mL phorbol 12-myristate 13-acetate (PMA, #P8139, Sigma), as indicated, to induce differentiation into macrophages.
(§1) Tumor necrosis α (TNFα) and monocyte chemoattractant protein 1 (MCP1) were measured in cell supernatants by Homogeneous Time Resolved Fluorescence (HTRF, #62[…] for TNFα, and 62HCCL2PEG for MCP1, Cisbio). Fluorescence was measured with Infinite 500 (#30019337, Tecan) to determine the concentration of cytokines.

[2] = system: THP1 macrophages; experiment: LPS (E. coli) activation of THP1 differentiated macrophages, TNFα and MCP1 secretion; type: cell-based, human; details: compound 24 h, then 100 ng/mL LPS E. coli 6 h
Protocol: (§2) In order to test the efficacy of the compounds on macrophage activation and pro-inflammatory cytokine production, 2.5×10^4 THP-1 cells were cultured in a 384-well plate and treated with 100 ng/mL PMA (#P8139, Sigma) for 24 h to induce differentiation into macrophages.
Then, medium was removed and FBS-deprived medium containing the compound of formula (I) was added for 24 h. Finally, THP1 macrophages were stimulated with 100 ng/mL LPS (E. coli 055:B5, #L4005, Sigma) for 6 h.

[3] = system: LPS-induced endotoxemia, Sprague Dawley rats; experiment: LPS-induced endotoxemia in rats, serum IL6 and IL1β (ELISA); type: in vivo; details: rat, 3 mg/kg/day oral 3 days before LPS 1 mg/kg i.p., 3 h after LPS
Protocol: To evaluate the efficacy of the compounds to reduce the cytokine production in response to LPS-induced endotoxemia, male Sprague Dawley rats of 250-275 g from Janvier Labs (France) received a single intraperitoneal injection of 1 mg/kg LPS (Escherichia coli 0111:B4, #L2630, Sigma).
Cpd.1 (3 mg/kg/day) or vehicle (Labrafil M 1944 CS, #3063, Gattefossé) was administered by oral gavage during the 3 days before LPS injection. Rats were euthanized by cervical dislocation 3 hours after treatment. Blood samples were obtained from retro-orbital sinus puncture on animals slightly asleep with isoflurane (Isoflurin 1000 mg/g, GTIN 03760087152678, Axience) just before sacrifice.
The serum concentrations of interleukin-6 (IL6) and interleukin-1β (L1β) were determined by ELISA (SR6000B and SRLB00, respectively, R&D Systems).

[4] = system: LPS-induced endotoxemia, Sprague Dawley rats; experiment: LPS-induced endotoxemia in rats, hepatic markers and serum TNFα; type: in vivo; details: rat, 3 mg/kg/day oral 3 days before LPS, 3 h after LPS
[5] = system: LPS/GaIN acute liver failure, C57BL/6J mice; experiment: LPS/GalN model of acute liver failure in mice, hepatic gene expression, serum cytokines and albumin; type: in vivo, mouse; details: 3 mg/kg/day oral 3 days before LPS/GaIN, 4 h after injection
[6] = system: CLP induced polymicrobial sepsis, C57BL6J mice; experiment: Cecal ligation and puncture (CLP) sepsis model in mice, survival; type: in vivo; details: mouse CLP
Protocol: This study aims to investigate the efficacy of Cpd.1 in cecal ligation and puncture (CLP) model in C57BL6J (BL6) male mice. The efficacy of the test compound was evaluated based on the survival rate of the animals within the study period.
C57BL6J male mice (supplier Janvier—France) at 9 weeks of age and weighing 23-25 g on arrival were anesthetized with 250 μL of xylazine/ketamine solution (20 mg/100 g body weight) by intraperitoneal route. A 1-1.5 cm abdominal midline incision was made, and the caecum was located and tightly ligated at half the distance between distal pole and the base of the cecum with 4-0 silk suture (mild grade). The caecum was punctured through-and-through once with a 21-gauge needle from mesenteric toward antimesenteric direction after medium ligation. A small amount of stool was extruded to ensure that the wounds were patent. Then the cecum was replaced in its original position within the abdomen, which was closed with sutures and wound clips. Mice were followed for body weight evolution and mortality rate until […].
Cpd.1 or vehicle (Labrafil M 1944 CS, #3063, Gattefossé) was administered at 0.3 mg/kg, p.o. for three days before CLP surgery. The day of CLP (day 0), Cpd.1 was administrated 1 h before surgery and pursued daily until day 6. Experiment was terminated at day 7. […]
Body weight and survival rate were measured for 7 days.

[7] = system: THP1 macrophages; experiment: LPS (Klebsiella pneumoniae) activation of THP1 macrophages, MCP1 and TNFα secretion (HTRF); type: cell-based, human
Protocol: as §2
Then, medium was removed and FBS-deprived medium containing 1 or 10 μM compound was added for 24 h. Finally, THP1 macrophages were stimulated for 6 h with 100 ng/mL LPS (Klebsiella pneumoniae, #L4268, Sigma-Aldrich).
as §1, with “Monocyte chemoattractant protein 1 (MCP1) and Tumor” for “Tumor”, “(TNFα)” for “(TNFα) and monocyte chemoattractant protein 1 (MCP1)”
In order to evaluate the effect of the compounds according to the invention on LPS-induced cytokines production by macrophages, the percentage of inhibition over the vehicle condition were calculated for each compound at 1 and 10 μM.

[8] = system: HepG2 cells; experiment: Staurosporin-induced apoptosis in HepG2 cells, caspase 3/7 activity; type: cell-based, human; details: 16 h pre-treatment, then 10 μM staurosporin 4 h
Protocol: In order to evaluate the effect of the compounds on human hepatocytes that undergo a cellular stress induced by staurosporin, the human hepatoblastoma-derived HepG2 cell line (ECACC, #85011430, Sigma-Aldrich) was cultured in high-glucose DMEM medium (#41965, Gibco, France) supplemented with 10% of fetal bovine serum (FBS, #10270, Gibco), 1% penicillin/streptomycin (#15140, Gibco), 1% sodium pyruvate (#11360, Gibco) and 1% MEM non-essential amino acids (#11140, Gibco) in a 5% CO2 incubator at 37° C.
To evaluate caspase 3/7 activity, which is a surrogate marker of apoptosis, 1.5×10^4 cells were plated in a 384-well plate (#781080, Greiner, France). After cell adherence (8 hours), cells were serum starved for 16 h in the presence of 0.3 μM of compounds or vehicle. Cpd.1 was also used at 3 and 10 μM. Thereafter, cells were treated with 10 μM staurosporin (#569397, Sigma-Aldrich, Germany) supplemented with compound for additional 4 hours before cell lysis and caspase activity measurement.
Caspase 3/7 activity was measured using Caspase Glow™ 3/7 assay (#G8093, Promega, USA). Luminescence was measured using a Spark microplate reader (#30086376, Tecan, USA). The amount of luminescence (RLU) directly correlates with caspase 3/7 activity.

COC(CCc1cc(C)c(OC(C)(C)C(=O)O)c(C)c1)c1ccc(OC(F)(F)F)cc1 (stereo not shown) [Cpd. 1, 2-[4-(3-methoxy-3-(4-(trifluoromethoxy)phenyl)propyl)-2,6-dimethylphenoxy]-2-methylpropanoic acid]
inhibition at 1 µM ([1]; read-out: inhibition of MCP1 content in the supernatant): ~50% | inhibition at 1 µM ([1]; read-out: inhibition of TNFα content in the supernatant): ~50% | reduction of TNFα secretion [2]: potent at reducing | reduction of MCP1 secretion ([2]; all doses tested): overpassing the untreated condition | reduction of serum IL1β level [3]: 31% | reduction of serum IL6 level [3]: 40% | serum total bilirubin level compared to vehicle [4]: completely restored | decrease of hepatic Ccl2 mRNA expression ([5]; mouse liver): 52% | decrease of hepatic IL1b mRNA expression ([5]; mouse liver): 46% | decrease of hepatic IL6 mRNA expression ([5]; mouse liver): 52% | decrease of hepatic TNF mRNA expression ([5]; mouse liver): 40% | reduction of hepatic Cd68 mRNA expression ([5]; mouse liver): 41% | reduction of circulating CCL2 level compared to vehicle ([5]; mouse serum): 59% | reduction of circulating IL6 level compared to vehicle ([5]; mouse serum): 62% | reduction of circulating TNFα level compared to vehicle ([5]; mouse serum): 51% | side effects after each administration ([6]; 0.3 mg/kg p.o.): No side effect | increase in survival rate compared to CLP+Vehicle group ([6]; 0.3 mg/kg p.o. from 3 days before surgery, daily, Day 7): 47% | inhibition at 1 µM ([7]; Homo sapiens, THP-1, 1 μM, 24 h, then LPS Klebsiella 6 h, read-out: % inhibition of MCP1 secretion over mean Veh.): 108% | inhibition at 10 µM ([7]; Homo sapiens, THP-1, 10 μM, 24 h, then LPS Klebsiella 6 h, read-out: % inhibition of MCP1 secretion over mean Veh.): 120% | production of MCP1 induced by LPS Klebsiella ([7]; THP1 macrophages, in words, concentration not given): overpassing the untreated condition | reduction of staurosporin-induced caspase activity ([8]; 0.3 μM to 10 μM): dose-dependent manner | inhibition at 0.3 µM ([8]; Homo sapiens, HepG2, 0.3 μM, read-out: % Inhibition of caspase activity over mean Veh.): 26%
